Data published in patent publication US4732977A, “Carbapenem antibiotics” (priority 1986, dated 1988).
Values after ≈ are worked out from the molar mass of the structure shown. Read-outs that look alike come from different tables or passages of the source.

Columns and labels:
[1] = Half-life (stability) in buffer solution; type: physicochemical; settings: for half-life at 100 µM: 10^-4 M
Method: T1/2 =9.8 h (measured at a concentration of 10^-4 M in phosphate buffer pH 7.4 at 36.8° C.).
UV (phosphate buffer, pH 7.4) λmax 294 nm (ε=8,202); T1/2 (phosphate buffer, pH 7.4, M=0.967, T=37° C.) 9.1 h.
(c of 10^-4 M in pH 7.4 phosphate buffer.
.tau.1/2 =20.8 h measured at 37° C. in buffer (pG 7.4) for a concentration of 10^-4 M.
.tau.1/2 =12.5 h measured at 37° C. in buffer pH 7.4 for a concentration of 10^-4 M.
h (measured for a concentration of 10^-4 M at 36.8° C. in buffer pH 7.4).
.tau.1/2 =26.0 h (measured for a concentration of 10^-4 M at 36.8° C. in buffer pH 7.4).
.tau.1/2 =16.6 h (measured at 36.8° C., pH 7.4 for a concentration of 10^-4 M) and (5R, 6S) 6-(1R-hydroxyethyl)7-oxo-3-[1,2,6-trimethylpyridinium-4-yl)methylthio]-1-azabicyclo[3.2.0 hept-2-ene-2-carboxylate, 0.010 g, 0.7%;
.tau.1/2 =11.6 h (measured for a concentration of 10^-4 M at 36.8° C. in buffer pH 7.4).
.tau.1/2 =13.4 h (measured for a concentration of 10^-4 M at 36.8° C. in buffer pH 7.4).
.tau.1/2 =14.4 h (measured for a concentration of 10^-4 M at 36.8° C. in buffer pH 7.4).
T 1/2: 10.2 h (biological buffer).
.tau.1/2 =10.2 h measured at 36.8° C. for a concentration of 10^-4 M in buffer pH 7.4.

[2] = tested on: P. vulgaris A21559; experiment: M.I.C., tube dilution; type: cell-based; settings: Proteus vulgaris, A21559, overnight incubation at 37° C., Nutrient Broth; read-out: MIC
[3] = Blood levels in mice after intramuscular administration; settings: mouse, blood, im, 20 mg/kg;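 note: compounds dissolved in 0.1 M phosphate buffer at pH 7, data from one experiment using four mice for each compound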
Source text: Compounds were solubilized in 0.1 M phosphate buffer pH 7.
a single test; 4 mice used per compound.
Compounds were solubilized in 0.1 M phosphate buffer, pH 7.
on a single test; 4 mice per compound.

[4] = tested on: S. faecalis A20688; experiment: M.I.C., tube dilution; type: cell-based; settings: Enterococcus faecalis, A20688, overnight incubation at 37° C., Nutrient Broth; read-out: MIC
[5] = tested on: S. pyogenes A-9604; experiment: M.I.C., tube dilution; type: cell-based; settings: Streptococcus pyogenes, A9604; overnight incubation at 37° C., Nutrient Broth; read-out: MIC
[6] = tested on: P. aeruginosa A21213; experiment: M.I.C., tube dilution; type: cell-based; settings: Pseudomonas aeruginosa
[7] = tested on: S. pneumoniae A-9585; experiment: M.I.C., tube dilution; type: cell-based; settings: Streptococcus pneumoniae, A9585; overnight incubation at 37° C., Nutrient Broth; read-out: MIC
[8] = tested on: S. aureus A-9537; experiment: M.I.C., tube dilution; type: cell-based; settings: Staphylococcus aureus, A9537; +50% serum; read-out: MIC
[9] = (phosphate) buffer pH 7.4, 37° C., read-out: half-life in solution (converted)
[10] = (phosphate) buffer pH 7.4, 36.8° C., read-out: T1/2 (half-life in solution) (converted)
[11] = biological buffer, read-out: T 1/2 (half-life in solution) (converted)

**Q.** With `Cc1cccc(CSC2=C(C(=O)[O-])N3C(=O)[C@H]([C@@H](C)O)C3[C@H]2C)[n+]1C` (stereo in doubt) [Example 25, (5R,6S) 3-[(1,6-dimethylpyridinium-2-yl)methylthio]-6-(1R-hydroxyethyl)-4R-methyl-7-oxo-1-azabicyclo[3.2.0]hept-2-ene-2-carboxylate] as the compound, how does the half-life at 100 µM [1, 9] read?
**A.** 20.8 h

**Q.** Which half-life at 100 µM [1, 10] does the source give for `Cc1ccc(CSC2=C(C(=O)[O-])N3C(=O)[C@H]([C@@H](C)O)C3[C@H]2C)c[n+]1C` (stereo in doubt) [Example 34, (5R,6S) 3-[(1,6-dimethylpyridinium-3-yl)methylthio]-6-(1R-hydroxyethyl)-4R-methyl-7-oxo-1-azabicyclo[3.2.0]hept-2-ene-2-carboxylate] here?
**A.** 27.8 h

**Q.** With `Cc1cc(CSC2=C(C(=O)[O-])N3C(=O)[C@H]([C@@H](C)O)C3[C@H]2C)c[n+](C)c1` (stereo in doubt) [Example 35, (5R,6S) 3-[(1,5-dimethylpyridinium-3-yl)methylthio]-6-(1R-hydroxyethyl)-4R-methyl-7-oxo-1-azabicyclo[3.2.0]hept-2-ene-2-carboxylate] as the compound, how does the half-life at 100 µM [1, 10] read?
**A.** 26 h

**Q.** Which half-life at 100 µM ([1]; phosphate buffer, 36.7° C., read-out: t 1/2 (half-life in solution) (converted)) does the source give for `Cc1cc(C)[n+](C)c(CSC2=C(C(=O)[O-])N3C(=O)[C@H]([C@@H](C)O)C3[C@H]2C)c1` (stereo in doubt) [Example 51A, (5R,6S) 6-(1R-Hydroxyethyl)-4R-methyl-7-oxo-3-[(1,4,6-trimethylpyridinium-2-yl)-methylthio]-1-azabicyclo[3.2.0]hept-2-ene-2-carboxylate] here?
**A.** 22.3 h

**Q.** With `Cc1cc(CSC2=C(C(=O)[O-])N3C(=O)[C@H]([C@@H](C)O)C3[C@H]2C)cc(C)[n+]1C` (stereo in doubt) [Example 51B, (5R,6S) 6-(1R-Hydroxyethyl)-4R-methyl-7-oxo-3-[(1,2,6-trimethylpyridinium-4-yl)-methylthio]-1-azabicyclo[3.2.0]hept-2-ene-2-carboxylate] as the compound, how does the half-life at 100 µM [1, 10] read?
**A.** 29.8 h

**Q.** For `Cc1c(CSC2=C(C(=O)[O-])N3C(=O)[C@H]([C@@H](C)O)C3[C@H]2C)sc[n+]1C` (stereo in doubt) [Example 54, (5R,6S) 3-[(3,4-Dimethylthiazolium-5-yl)methylthio]-6-(1'R-hydroxyethyl)-4R-methyl-7-oxo-1-azabicyclo[3.2.0]hept-2-ene-2-carboxylate], which half-life at 100 µM [1, 9] is on record?
**A.** 19 h

**Q.** For `Cc1cc(CSC2=C(C(=O)[O-])N3C(=O)[C@H]([C@@H](C)O)[C@H]3C2)cc(C)[n+]1C` [(5R,6S) 6-(1R-hydroxyethyl)-7-oxo-3-[(1,2,6-trimethylpyridinium-4-yl)methylthio]-1-azabicyclo[3.2.0]hept-2-ene-2-carboxylate], which half-life at 100 µM [1, 10] is on record?
**A.** 11.6 h

**Q.** With `Cc1cc(C)[n+](C)c(CSC2=C(C(=O)[O-])N3C(=O)[C@H]([C@@H](C)O)[C@H]3C2)c1` [(5R,6S) 6-(1R-hydroxyethyl)-7-oxo-3-[(1,4,6-trimethylpyridinium-2-yl)methylthio]-1-azabicyclo[3.2.0]hept-2-ene-2-carboxylate] as the compound, how does the half-life at 100 µM [1, 10] read?
**A.** 16.6 h

**Q.** With `C[C@@H](O)[C@H]1C(=O)N2C(C(=O)[O-])=C(SCc3scc[n+]3C)C[C@H]12` [Example 11, 3-[2-(N-Methylthiazolium)methylthio]-6α-[1-(R)-hydroxyethyl]-7-oxo-1-azabicyclo(3.2.0)hept-2-ene-2-carboxylate] as the compound, how does the MIC [2] read?
**A.** 0.03 µg/mL (≈ 0.0881 µM)

**Q.** What about the AUC [3] of the same compound?
**A.** 7400 ng·h/mL

**Q.** And the Cmax [3]?
**A.** 14900 ng/mL

**Q.** And the half-life [3]?
**A.** 0.183 h

**Q.** What about the MIC [4] of the same compound?
**A.** 0.5 µg/mL (≈ 1.47 µM)

**Q.** For `C[C@@H](O)[C@H]1C(=O)N2C(C(=O)[O-])=C(SCc3n(Cc4ccccc4)cc[n+]3C)C[C@H]12` [Example 13, 3-(N Methyl-N'-benzylimidazole-2-yl-methanethio)-6α-[1-(R)-hydroxyethyl]-7-oxo-1-azabicyclo(3.2.0)hept-2-ene-2-carboxylate], which MIC [5] is on record?
**A.** 0.0005 µg/mL (≈ 0.00121 µM)

**Q.** And the MIC [2]?
**A.** 0.008 µg/mL (≈ 0.0193 µM)

**Q.** And the MIC ([6]; A21213, overnight incubation at 37° C., Nutrient Broth, read-out: MIC)?
**A.** 2 µg/mL (≈ 4.84 µM)

**Q.** And the AUC [3]?
**A.** 6400 ng·h/mL

**Q.** And the Cmax [3]?
**A.** 14800 ng/mL

**Q.** What about the half-life [3] of the same compound?
**A.** 0.183 h

**Q.** What about the MIC [7] of the same compound?
**A.** 0.0005 µg/mL (≈ 0.00121 µM)

**Q.** With `C[C@@H](O)[C@H]1C(=O)N2C(C(=O)[O-])=C(SCc3cs[n+](C)n3)C[C@H]12` [Example 16, (5R,6S) 6-(1R-hydroxyethyl)-3-(2-methyl-1,2,3-thiadiazolium-4-ylmethylthio)-7-oxo-1-azabicyclo[3.2.0]hept-2-ene-2-carboxylate] as the compound, how does the half-life at 100 µM [1, 10] read?
**A.** 9.8 h

**Q.** What about the MIC [2] of the same compound?
**A.** 0.03 µg/mL (≈ 0.0879 µM)

**Q.** What about the MIC ([6]; A21213) of the same compound?
**A.** 0.13 µg/mL (≈ 0.381 µM)

**Q.** What about the MIC [4] of the same compound?
**A.** 1 µg/mL (≈ 2.93 µM)

**Q.** What does the source list for `C[C@@H](O)[C@H]1C(=O)N2C(C(=O)[O-])=C(SCc3n(C)nc[n+]3C)C[C@H]12` [Example 19, 3-[5-(1,4-dimethyl-1,2,4-triazolium)-methanethio]-6α-[1-(R)-hydroxyethyl]-7-oxo-1-azabicyclo[3.2.0]hept-2-ene-2-carboxylate]?
**A.** half-life ([1]; phosphate buffer, pH 7.4, M=0.967, T=37° C., read-out: T1/2 (half-life in solution) (converted)): 9.1 h; MIC [2]: 0.016 µg/mL (≈ 0.0473 µM); AUC [3]: 15100 ng·h/mL; Cmax [3]: 27000 ng/mL; half-life [3]: 0.278 h; MIC [8]: 0.008 µg/mL (≈ 0.0236 µM)

**Q.** With `Cc1cccc(CSC2=C(C(=O)[O-])N3C(=O)[C@H]([C@@H](C)O)[C@H]3C2)[n+]1C` [Example 26, (5R,6S) 3-[(1,6-dimethylpyridinium-2-yl)methylthio]-6-(1R-hydroxyethyl)-7-oxo-1-azabicyclo[3.2.0]hept-2-ene-2-carboxylate] as the compound, how does the half-life at 100 µM [1, 9] read?
**A.** 12.5 h

**Q.** Which half-life at 100 µM [1, 10] does the source give for `Cc1cc(CSC2=C(C(=O)[O-])N3C(=O)[C@H]([C@@H](C)O)[C@H]3C2)c[n+](C)c1` [Example 37] here?
**A.** 13.4 h

**Q.** Which half-life at 100 µM [1, 10] does the source give for `Cc1ccc(CSC2=C(C(=O)[O-])N3C(=O)[C@H]([C@@H](C)O)[C@H]3C2)c[n+]1C` [Example 38, (5R,6S) 3-[(1,6-dimethylpyridinium-3-yl)methylthio]-6-(1R-hydroxyethyl)-7-oxo-1-azabicyclo[3.2.0]hept-2-ene-2-carboxylate] here?
**A.** 14.4 h

**Q.** With `C[C@@H](O)[C@H]1C(=O)N2C(C(=O)[O-])=C(SCc3cncc[n+]3C)C[C@H]12` [Example 45, (5R,6S)-6-(1R-Hydroxyethyl)-3-[(1-methyl-1,4-pyraziinium-2-yl)methylthio]-7-oxo-1-azabicyclo(3.2.0)-hept-2-ene-2-carboxylate] as the compound, how does the half-life [1, 11] read?
**A.** 10.2 h

**Q.** Which half-life ([1]; biological buffer, unit inferred, read-out: T1/2 (half-life in solution) (converted)) does the source give for `C[C@@H](O)[C@H]1C(=O)N2C(C(=O)[O-])=C(SCc3cncc[n+]3C)[C@H](C)[C@H]12` [Example 46, (5R,6S)-6-(1R-Hydroxyethyl)-4R-methyl-3-[(1-methyl-1,4-pyrazinium-2-yl)-methylthio]-7-oxo-1-azabicyclo[3.2.0]-hept-2-ene-2-carboxylate] here?
**A.** 12.3 h

**Q.** With `C[C@@H](O)[C@H]1C(=O)N2C(C(=O)[O-])=C(SCc3cn(C)[n+](C)c3)C[C@H]12` [Example 47] as the compound, how does the half-life [1, 11] read?
**A.** 15.2 h

**Q.** For `Cc1c(CSC2=C(C(=O)[O-])N3C(=O)[C@H]([C@@H](C)O)[C@H]3C2)sc[n+]1C` [Example 50], which half-life at 100 µM ([1]; pH 7.4 phosphate buffer, temperature not given, read-out: half-life in solution (converted)) is on record?
**A.** 11 h

**Q.** With `COCC[n+]1ccccc1CSC1=C(C(=O)[O-])N2C(=O)[C@H]([C@@H](C)O)[C@H]2C1` [Example 52, (5R,6S) 6-(1R-hydroxyethyl)-3-[{1-(2-methoxyethyl)pyridinium-2-yl}methylthio]-7-oxo-1-azabicyclo[3.2.0]hept-2-ene-2-carboxylate] as the compound, how does the half-life at 100 µM [1, 10] read?
**A.** 9.9 h

**Q.** Which half-life at 100 µM [1, 10] does the source give for `C#CCC[n+]1ccccc1CSC1=C(C(=O)[O-])N2C(=O)[C@H]([C@@H](C)O)[C@H]2C1` [Example 53, (5R,6S) 3[(1-{but-3-yn-1-ylpyridinium-2-yl)}methylthio]-6-(1R-hydroxyethyl)-7-oxo-1-azabicyclo[3.2.0]hept-2-ene-2-carboxylate] here?
**A.** 10.2 h
